Where two headings read alike, the source gives them in different places.
How the values were obtained:
FGFR3 = FGFR3 (Homo sapiens (Human), UniProt P22607); assay: Kinase panel screening; conditions: read-out: Staurosporine IC50; FGFR3; control compound per footnote b
From the text: (§1) Measurement of Inhibitory Activity Against Various Protein Kinases

FLT3 [1] = target: T1, FLT3 (Homo sapiens (Human), UniProt P36888); assay: Measurement of FLT3 enzyme activity; type: biochemical
From the text: Measurement of FLT3 Enzyme Activity
A change in FLT3 enzyme activity by treatment with the benzimidazole derivatives of the following Table 1 according to the present invention was confirmed by IC50.

FLT3 (ITD) = assay: Kinase panel screening; conditions: single dose of 10 μM
From the text: as §1

RAFI = RAFI (Homo sapiens (Human), UniProt P04049); assay: Kinase panel screening; conditions: read-out: % inhibition rate
From the text: as §1

FMS = FMS (Homo sapiens (Human), UniProt P07333); assay: Kinase panel screening; type: biochemical
FLT3 [2] = target: T1, FLT3; assay: Kinase panel screening; conditions: FLT3; single dose of 10 μM
From the text: as §1

[3] = FLT3 enzyme activity, read-out: FLT3 (IC50)
[4] = FLT3 kinase activity, read-out: IC50 against FLT3

T1 sequence (P36888 27-993): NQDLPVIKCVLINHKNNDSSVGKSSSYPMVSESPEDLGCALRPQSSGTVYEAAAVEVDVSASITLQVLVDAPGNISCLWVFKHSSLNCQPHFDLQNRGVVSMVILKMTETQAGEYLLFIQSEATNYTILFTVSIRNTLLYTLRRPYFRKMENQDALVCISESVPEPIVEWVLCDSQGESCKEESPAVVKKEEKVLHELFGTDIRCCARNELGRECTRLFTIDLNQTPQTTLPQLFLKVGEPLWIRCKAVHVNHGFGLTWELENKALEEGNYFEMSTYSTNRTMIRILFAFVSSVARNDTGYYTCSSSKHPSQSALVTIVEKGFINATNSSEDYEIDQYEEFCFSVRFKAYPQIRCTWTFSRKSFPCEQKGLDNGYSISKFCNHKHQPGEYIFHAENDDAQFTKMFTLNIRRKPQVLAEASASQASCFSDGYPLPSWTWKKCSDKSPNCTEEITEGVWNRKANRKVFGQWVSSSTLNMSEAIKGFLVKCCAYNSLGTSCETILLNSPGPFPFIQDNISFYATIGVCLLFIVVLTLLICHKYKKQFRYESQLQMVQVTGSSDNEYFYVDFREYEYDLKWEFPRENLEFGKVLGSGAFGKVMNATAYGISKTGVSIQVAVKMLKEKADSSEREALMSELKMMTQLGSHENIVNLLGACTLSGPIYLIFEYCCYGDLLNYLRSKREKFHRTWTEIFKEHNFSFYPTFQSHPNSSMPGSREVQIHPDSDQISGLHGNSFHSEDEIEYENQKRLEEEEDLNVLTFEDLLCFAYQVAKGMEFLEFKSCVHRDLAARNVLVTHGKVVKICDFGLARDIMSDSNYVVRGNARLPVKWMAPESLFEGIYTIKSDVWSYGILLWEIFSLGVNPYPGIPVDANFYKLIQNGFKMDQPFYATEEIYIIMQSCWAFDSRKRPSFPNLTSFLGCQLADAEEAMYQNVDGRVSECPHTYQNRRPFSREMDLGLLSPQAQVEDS
Sequence of FMS (P07333 20-972, species assumed): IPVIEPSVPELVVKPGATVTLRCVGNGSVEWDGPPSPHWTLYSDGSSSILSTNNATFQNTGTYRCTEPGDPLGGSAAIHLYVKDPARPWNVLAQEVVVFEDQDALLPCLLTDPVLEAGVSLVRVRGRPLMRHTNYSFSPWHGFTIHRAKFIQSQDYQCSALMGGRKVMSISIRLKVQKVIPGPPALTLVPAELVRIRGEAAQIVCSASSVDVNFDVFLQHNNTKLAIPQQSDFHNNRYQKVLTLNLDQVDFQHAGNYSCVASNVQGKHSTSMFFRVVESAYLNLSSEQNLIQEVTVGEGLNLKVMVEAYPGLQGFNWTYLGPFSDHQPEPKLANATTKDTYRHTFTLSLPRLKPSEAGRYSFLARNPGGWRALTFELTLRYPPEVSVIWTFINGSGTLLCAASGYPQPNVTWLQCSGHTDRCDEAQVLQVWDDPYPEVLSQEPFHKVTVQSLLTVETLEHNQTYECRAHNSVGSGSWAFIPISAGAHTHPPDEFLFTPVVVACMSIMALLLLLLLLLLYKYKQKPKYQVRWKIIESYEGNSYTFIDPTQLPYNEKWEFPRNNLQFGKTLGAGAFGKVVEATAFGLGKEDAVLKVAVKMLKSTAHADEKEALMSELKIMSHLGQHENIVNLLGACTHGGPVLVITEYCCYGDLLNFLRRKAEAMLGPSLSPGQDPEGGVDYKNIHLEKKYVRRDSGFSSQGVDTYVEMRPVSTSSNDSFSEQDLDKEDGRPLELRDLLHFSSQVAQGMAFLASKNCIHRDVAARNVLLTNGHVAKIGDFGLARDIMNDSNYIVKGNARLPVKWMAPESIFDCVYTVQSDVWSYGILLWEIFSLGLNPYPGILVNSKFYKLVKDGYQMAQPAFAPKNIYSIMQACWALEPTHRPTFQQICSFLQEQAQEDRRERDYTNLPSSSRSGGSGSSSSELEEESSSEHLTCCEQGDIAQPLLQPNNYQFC
Sequence of FGFR3 (P22607 23-806, species assumed): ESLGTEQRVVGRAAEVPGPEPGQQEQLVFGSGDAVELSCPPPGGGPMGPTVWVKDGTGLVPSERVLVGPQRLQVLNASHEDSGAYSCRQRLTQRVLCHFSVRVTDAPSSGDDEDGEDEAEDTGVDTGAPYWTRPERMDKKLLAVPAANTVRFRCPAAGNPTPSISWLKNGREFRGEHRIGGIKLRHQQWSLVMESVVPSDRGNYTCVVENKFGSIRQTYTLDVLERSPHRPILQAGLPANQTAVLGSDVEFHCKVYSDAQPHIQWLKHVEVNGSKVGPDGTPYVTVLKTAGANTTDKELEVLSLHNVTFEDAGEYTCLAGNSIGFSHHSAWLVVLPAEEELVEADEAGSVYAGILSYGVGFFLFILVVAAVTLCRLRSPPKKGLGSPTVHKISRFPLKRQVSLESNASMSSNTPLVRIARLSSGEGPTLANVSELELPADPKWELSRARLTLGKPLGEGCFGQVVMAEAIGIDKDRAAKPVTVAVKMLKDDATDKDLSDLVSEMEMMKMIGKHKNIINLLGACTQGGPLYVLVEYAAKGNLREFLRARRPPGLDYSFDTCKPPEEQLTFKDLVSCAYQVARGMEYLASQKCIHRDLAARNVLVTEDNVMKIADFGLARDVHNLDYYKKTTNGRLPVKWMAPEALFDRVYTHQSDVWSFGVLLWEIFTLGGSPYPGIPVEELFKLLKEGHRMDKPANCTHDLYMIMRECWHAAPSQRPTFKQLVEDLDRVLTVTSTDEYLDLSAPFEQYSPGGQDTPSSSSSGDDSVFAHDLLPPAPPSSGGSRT
Sequence of RAFI (P04049 whole entry): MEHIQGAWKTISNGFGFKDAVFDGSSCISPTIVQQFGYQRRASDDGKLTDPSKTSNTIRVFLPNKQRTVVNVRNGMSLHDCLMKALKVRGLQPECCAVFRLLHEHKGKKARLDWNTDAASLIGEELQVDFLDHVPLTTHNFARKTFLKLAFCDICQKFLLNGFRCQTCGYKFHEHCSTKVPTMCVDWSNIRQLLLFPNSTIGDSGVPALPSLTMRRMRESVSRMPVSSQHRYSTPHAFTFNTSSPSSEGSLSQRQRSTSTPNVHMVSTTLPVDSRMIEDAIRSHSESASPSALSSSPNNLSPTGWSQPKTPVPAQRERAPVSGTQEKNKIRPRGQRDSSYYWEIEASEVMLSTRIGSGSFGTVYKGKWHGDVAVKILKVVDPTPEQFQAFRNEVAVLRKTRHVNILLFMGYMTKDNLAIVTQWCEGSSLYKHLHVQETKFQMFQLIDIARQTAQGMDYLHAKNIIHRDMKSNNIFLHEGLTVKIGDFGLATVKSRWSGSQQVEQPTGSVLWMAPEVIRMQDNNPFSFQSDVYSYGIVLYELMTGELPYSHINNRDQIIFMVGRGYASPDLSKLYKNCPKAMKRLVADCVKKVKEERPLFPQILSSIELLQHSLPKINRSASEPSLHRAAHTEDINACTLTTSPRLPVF

SMILES: O=C(Nc1ccc2[nH]nc(-c3ccncc3)c2c1)[C@@H]1CCN(CC(=O)N2CCN(c3ccc(-c4ncccn4)cc3)CC2)C1 [SCH772984, reference compound]
- IC50 (FGFR3): 0.0147 µM

SMILES: Cc1oncc1C(=O)Nc1ccc2[nH]c(C3CCCC3)nc2c1 [Compound 5p, N-(2-cyclopentyl-1H-benz[d]imidazol-5-yl)-5-methylisoxazole-4-carboxamide]
- IC50 (FLT3 [1]; [3]): > 10 µM

SMILES: Cc1oncc1C(=O)Nc1ccc2[nH]c(-c3ccc(Cl)cc3)nc2c1 [Compound 5l, N-(2-(4-chlorophenyl)-1H-benz[d]imidazol-5-yl)-5-methylisoxazole-4-carboxamide]
- IC50 (FLT3 [1]; [3]): 3 to 10 µM

SMILES: CCN1CCN(Cc2ccc(-c3nc4cc(NC(=O)c5cnoc5C)ccc4[nH]3)cc2C(F)(F)F)CC1 [Compound 5n, N-(2-(4-((4-ethylpiperazin-1-yl)methyl)-3-(trifluoromethyl)phenyl)-1H-benz[d]imidazol-5-yl)-5-methylisoxazole-4-carboxamide]
- IC50 (FLT3 [1]; [3]): 3 to 10 µM

SMILES: CCN1CCN(Cc2cc(-c3nc4cc(NC(=O)c5cnoc5C)ccc4[nH]3)cc(C(F)(F)F)c2)CC1 [Compound 5m, N-(2-(3-((4-ethylpiperazin-1-yl)methyl)-5-(trifluoromethyl)phenyl)-1H-benz[d]imidazol-5-yl)-5-methylisoxazole-4-carboxamide]
- IC50 (FLT3 [1]; [3]): 3 to 10 µM

SMILES: Cc1oncc1C(=O)Nc1ccc2[nH]c(-c3cc(OC4CCN(C)CC4)cc(C(F)(F)F)c3)nc2c1 [Compound 5i, 5-methyl-N-(2-(3-((1-methylpiperidin-4-yl)oxy)-5-(trifluoromethyl)phenyl)-1H-benz[d]imidazol-5-yl)isoxazole-4-carboxamide]
- IC50 (FLT3 [1]; [3]): 3 to 10 µM

SMILES: Cc1cn(-c2cc(-c3nc4cc(NC(=O)c5cnoc5C)ccc4[nH]3)cc(C(F)(F)F)c2)cn1 [Compound 5d, 5-methyl-N-(2-(3-(4-methyl-1H-imidazol-1-yl)-5-(trifluoromethyl)phenyl)-1H-benz[d]imidazol-5-yl)isoxazole-4-carboxamide]
- IC50 (FLT3 [1]; [3]): < 3 µM

SMILES: Cc1oncc1C(=O)Nc1cccc2[nH]c(-c3cc(N4CCN(C)CC4)cc(C(F)(F)F)c3)nc12 [Compound 6a]
- IC50 (FLT3 [1]; [3]): < 3 µM

SMILES: Cc1oncc1C(=O)Nc1ccc2[nH]c(-c3cc(N4CCN(C)CC4)cc(C(F)(F)F)c3)nc2c1 [Compound 5a, 5-methyl-N-(2-(3-(4-methylpiperazin-1-yl)-5-(trifluoromethyl)phenyl)-1H-benz[d]imidazol-5-yl)isoxazole-4-carboxamide]
- % inhibition rate (FLT3 (ITD)): 88.48%
- inhibition at 10 µM (RAFI): 8.47%
- inhibition at 10 µM (FMS; read-out: % inhibition rate): 0%
- activity against other protein kinases, particularly FMS (in words) (FMS; single dose of 10 μM): did not exhibit significant activity
- % inhibition rate (FLT3 [2]): 89.97%
- IC50 (FLT3 [1]; [3]): < 3 µM
- IC50 (FLT3 [1]; [4]): 0.495 µM

SMILES: Cc1oncc1C(=O)Nc1ccc2[nH]c(-c3cc(-n4ccnc4C)cc(C(F)(F)F)c3)nc2c1 [Compound 5f, 5-methyl-N-(2-(3-(2-methyl-1H-imidazol-1-yl)-5-(trifluoromethyl)phenyl)-1H-benz[d]imidazol-5-yl)isoxazol-4-carboxamide]
- IC50 (FLT3 [1]; [3]): > 10 µM

SMILES: Cc1oncc1C(=O)Nc1ccc2[nH]c(-c3ccc(N4CCN(C)CC4)c(C(F)(F)F)c3)nc2c1 [Compound 5j, 5-methyl-N-(2-(4-(4-methylpiperazin-1-yl)-3-(trifluoromethyl)phenyl)-1H-benz[d]imidazol-5-yl)isoxazole-4-carboxamide]
- IC50 (FLT3 [1]; [3]): > 10 µM

SMILES: Cc1oncc1C(=O)Nc1ccc2[nH]c(-c3ccc(N4CCOCC4)c(C(F)(F)F)c3)nc2c1 [Compound 5c, 5-methyl-N-(2-(4-morpholino-3-(trifluoromethyl)phenyl)-1H-benz[d]imidazol-5-yl)isoxazole-4-carboxamide]
- IC50 (FLT3 [1]; [3]): 3 to 10 µM
- IC50 (FLT3 [1]; [4]): 10 µM

SMILES: Cc1oncc1C(=O)Nc1ccc2[nH]c(-c3cc(F)cc(C(F)(F)F)c3)nc2c1 [Compound 5h, N-(2-(3-fluoro-5-(trifluoromethyl)phenyl)-1H-benz[d]imidazol-5-yl)-5-methylisoxazole-4-carboxamide]
- IC50 (FLT3 [1]; [3]): > 10 µM

SMILES: Cc1oncc1C(=O)Nc1cccc2[nH]c(-c3ccc(N4CCOCC4)c(C(F)(F)F)c3)nc12 [Compound 6b, 5-methyl-N-(2-(4-morpholino-3-(trifluoromethyl)phenyl)-1H-benz[d]imidazol-4-yl)isoxazole-4-carboxamide]
- IC50 (FLT3 [1]; [3]): > 10 µM

SMILES: Cc1oncc1C(=O)Nc1ccc2[nH]c(-c3ccc(Cl)c(C(F)(F)F)c3)nc2c1 [Compound 5k, N-(2-(4-chloro-3-(trifluoromethyl)phenyl)-1H-benz[d]imidazol-5-yl)-5-methylisoxazole-4-carboxamide]
- IC50 (FLT3 [1]; [3]): 3 to 10 µM

SMILES: CC(=O)N1CCC(c2nc3cc(NC(=O)c4cnoc4C)ccc3[nH]2)CC1 [Compound 5o, N-(2-(1-acetylpiperidin-4-yl)-1H-benz[d]imidazol-5-yl)-5-methylisoxazole-4-carboxamide]
- IC50 (FLT3 [1]; [3]): > 10 µM

SMILES: Cc1oncc1C(=O)Nc1ccc2[nH]c(-c3cc(-n4cncc4C)cc(C(F)(F)F)c3)nc2c1 [Compound 5e, 5-methyl-N-(2-(3-(5-methyl-1H-imidazol-1-yl)-5-(trifluoromethyl)phenyl)-1H-benz[d]imidazol-5-yl)isoxazole-4-carboxamide]
- IC50 (FLT3 [1]; [3]): < 3 µM

SMILES: Cc1cn(-c2cc(-c3nc4c(NC(=O)c5cnoc5C)cccc4[nH]3)cc(C(F)(F)F)c2)cn1 [Compound 6c, 5-methyl-N-(2-(3-(4-methyl-1H-imidazol-1-yl)-5-(trifluoromethyl)phenyl)-1H-benz[d]imidazol-4-yl)isoxazole-4-carboxamide]
- IC50 (FLT3 [1]; [3]): 3 to 10 µM
